Experimental findings from patent US7671058B2, “N-(3,4-disubstituted phenyl) salicylamide derivatives” (Institute of Medicinal Molecular Design, Inc., priority 2006, dated 2010) are described below.

Assay [1] relates to STAT6. As to the kind of experiment: STAT6 inhibition test: (GLS)x8/pTA-Luc luciferase reporter in U2-OS cells stimulated with human IL-4. The following applies: human IL-4 40 ng/mL; for Inhibition Rate of STAT6 (%): compound 2 μM, 8 hours; for IC50: from inhibition rates at 1, 0.1, 0.01 and 0.001 μM, read-out: IC50 against activation of STAT6. Type of assay: cell-based.
Assay [2] has as its system NF-κB. As to the kind of experiment: NF-κB inhibition test: pNFκB-Luc luciferase reporter in U2-OS cells stimulated with human TNF α. As to conditions: human TNF α 10 ng/mL; for Inhibition Rate of NF-κB (%): compound 2 μM, 8 hours; for IC50: from inhibition rates at 1, 0.1, 0.01 and 0.001 μM, read-out: IC50 against activation of NF-κB. Type of assay: cell-based. For orientation: A reporter such as luciferase makes a cellular process visible.

The term IC50 denotes the point on the concentration scale where inhibition reaches its midpoint. In the case of `CN1CCCN(c2ccc(NC(=O)c3cc(Br)ccc3O)cc2F)CC1` [compound 86], in assay [1], the “Inhibition Rate of STAT6 (%)” value is listed as 93 (2 μM) % and the half-inhibitory concentration (IC50) was 10.8 nM. In assay [2], the “Inhibition Rate of NF-κB (%)” value is 93 (2 μM) % and the IC50 is 7.62 nM.
Consider `O=C(Nc1ccc(N2CCCNCC2)c(F)c1)c1cc(Br)ccc1O` [compound 87], for which, in assay [1], the “Inhibition Rate of STAT6 (%)” value was 91 (2 μM) % and the IC50 came out at 18.3 nM. In assay [2], the “Inhibition Rate of NF-κB (%)” value was 93 (2 μM) % and the concentration for half-maximal inhibition (IC50) came out at 11.7 nM.
For the compound `CC1CNCCN1c1ccc(NC(=O)c2cc(Cl)ccc2O)cc1F.Cl` (stereo not shown) [compound 88], in assay [1], the “Inhibition Rate of STAT6 (%)” value is given as 90 (2 μM) % and the IC50 was 25.5 nM. Also, in assay [2], the “Inhibition Rate of NF-κB (%)” value was 90 (2 μM) % and the IC50 was 21.9 nM.
Consider `CCC1CNCCN1c1ccc(NC(=O)c2cc(Cl)ccc2O)cc1F.Cl` (stereo not shown) [compound 89], for which the “Inhibition Rate of STAT6 (%)” value in assay [1] was 62 (2 μM) %. Also, the “Inhibition Rate of NF-κB (%)” value in assay [2] is on record as 62 (2 μM) %.
In the case of `CN1CCN(c2ccc(NC(=O)c3cc(C#N)ccc3O)cc2F)CC1.Cl` [compound 90], the “Inhibition Rate of STAT6 (%)” value in assay [1] was 11 (2 μM) %. Also, the “Inhibition Rate of NF-κB (%)” value in assay [2] is 18 (2 μM) %.
